The results in this text go back to patent US4461891A, “2-β-D-Ribofuranosylthiazole-4-carboxamidine compounds” (Brigham Young University, priority 1983, dated 1984).

The test system of one series is T-cells. As to the kind of experiment: T-cell test: selective cytotoxicity in the presence of 2'-deoxyguanosine. Format: cell-based.
The test system of another series is HSB. Briefly: T-cell test with 2'-deoxyguanosine, HSB. Format: cell-based. As to conditions: with 2'-deoxyguanosine (10 micromoles), read-out: ED50 (toxic for T-lymphoblasts).
The test system of the next series is CEM T-lymphoblasts. As to the kind of experiment: T-cell test with 2'-deoxyguanosine, CEM. To be noted: with 2'-deoxyguanosine (10 micromoles), read-out: ED50 (toxic for T-lymphoblasts). The series is classed as cell-based.
Series [1] concerns purine nucleoside phosphorylase. As to the kind of experiment: purine nucleoside phosphorylase (PNP-4) test: formation of [14C]-hypoxanthine from [14C]-inosine. To be noted: human erythrocytes as the source of enzyme; [14C]-inosine substrate. The series is classed as biochemical. An excerpt:
In particular, the compound, in a standard protocol, patterned after that reported in Biomedicine, 33, 39-41(1980), has been shown typically to inhibit the formation of [^14 C]-hypoxanthine from [^14 C]-inosine using human erythrocytes as the source of enzyme. […] Since T-cells play a central role in immune response, use of the compounds of the invention is contemplated for the immunoregulation of autoimmune disease Such as rheumatoid arthritis, systemic lupus erythematosus, and inflammatory bowel disease. The present invention in another preferred aspect therefore relates to compositions containing at least one compound of the invention in treating disease such as autoimmune disease characterized by abnormal immune response in warm blooded animals. According to this aspect of the invention, the properties of 2-β-D-ribofuranosylthiazole-4-carboxamidines are utilized by administering to a warm blooded animal an effective amount of a pharmaceutical composition containing as the active ingredient at least about 0.1 percent by weight, based on the total weight of the composition of at least one such compound of the invention.

The subject of a further series is MOLT-4. As to the kind of experiment: T-cell test with 2'-deoxyguanosine, MOLT-4. Format: cell-based. To be noted: with 2'-deoxyguanosine (10 micromoles), read-out: ED50 (toxic for T-lymphoblasts).

In the case of `Cl.N=C(N)c1csc([C@@H]2O[C@H](CO)[C@@H](O)[C@H]2O)n1` [Example 1, 2-β-D-Ribofuranosylthiazole-4-Carboxamidine, hydrochloride], the “selective cytotoxicity for T-cells” value with T-cells is on record as “selectively cytotoxic for T-cells”. The IC50 is approximately 7 µM with HSB, approximately 77 µM with CEM T-lymphoblasts and approximately 27 µM with MOLT-4. Besides, the “concentration at which total inhibition was achieved” value in series [1] is reported as “less than 300 micromoles”.
